# Experimental data from PMC8274517, “Diaryl azo derivatives as anti-diabetic and antimicrobial agents: synthesis, in vitro, kinetic and docking studies” (Journal of Enzyme Inhibition and Medicinal Chemistry, 2021).
# Tests used:
# α-glucosidase = experiment: In vitro α-glucosidase inhibition assay (pNPG substrate); format: biochemical, Saccharomyces Cerevisiae; conditions: for IC50: means ± SEM of triplicate
# Description: The α-glucosidase inhibition assay was performed as described previously. In summary, the stock solution of the enzyme from Saccharomyces Cerevisiae (0.2 U/mL) was prepared in 0.05 M sodium phosphate buffer pH 6.8. […] After incubation, 10 µL of the substrate, p-nitrophenyl α-D-glucopyranoside (pNPG, 5 mM solution in 0.05 M phosphate buffer) was added to the aboveprepared mixture and incubated again under the same experimental conditions. The reaction was stopped with the addition of 0.1 M Na2CO3 and OD405 was taken by a 96-well ELISA reader. The experiment was performed in triplicate.
# P. aeruginosa (DR) [1] = experiment: Antibacterial activity, minimum inhibitory concentration; format: cell-based; design: key: R: resistant; S: sensitive
# Description: (§1) The prepared azo derivatives were screened for their antibacterial activity against six bacterial strains obtained from hospital isolates i.e. gram positive (S. aureus, S. aureus (DR)) and gram-negative (E. coli, P. aeruginosa, P. aeruginosa (DR), P. vulgaris). All the strains were confirmed by biochemical identification and drug susceptibility methods. The antibacterial evaluation was done by agar disc diffusion method[39]^,[40] and MIC was determined. In summary, a 48-h old inoculum having ∼0.48 OD600, of the above-mentioned bacterial strains was spread on the solidified trypticase soy agar media and Whatman no. 1 filter paper discs (5 mm in diameter) soaked with the title compounds (10 µL/disc of 10 mg/mL) were placed on the plates. Ampicillin and moxifloxacin were used as positive controls and DMSO as negative control respectively.
# S. aureus (DS) [2] = experiment: as above; format: cell-based; design: key: R: resistant; S: sensitive
# Description: as §1
# E. coli = experiment: as above; format: cell-based; design: key: R: resistant; S: sensitive
# Description: as §1
# P. aeruginosa (DS) [3] = experiment: as above; format: cell-based; design: key: R: resistant; S: sensitive
# Description: as §1
# P. vulgaris = experiment: as above; format: cell-based; design: key: R: resistant; S: sensitive
# Description: as §1
# S. aureus (DR) [4] = experiment: as above; format: cell-based; design: key: R: resistant; S: sensitive
# Description: as §1
# P. aeruginosa (DR) [5] = experiment: Antibiofilm assay (crystal violet); format: cell-based; conditions: 0.5 mg/mL; for inhibition at 500 µg/mL: Pseudomonas aeruginosa, read-out: biofilm inhibition (anti-biofilm potency)
# Description: (§2) The antibiofilm activity of the synthesised azo derivatives was assessed by microtitre plate-based crystal violet method[44] against respective bacterial strains i.e. gram-positive (S. aureus, S. aureus (DR)) and gram-negative (P. aeruginosa, P. aeruginosa (DR)). In brief, 10 µL bacterial suspension, 100 µL trypticase soy broth and 10 µL (10 mg/mL) of test compounds were added in the wells in duplicates and incubated at 37 °C overnight. Ampicillin and moxifloxacin were used as positive controls. After the aspiration of planktonic cells, the biofilm was fixed with 99% methanol. The wells were then washed with 0.1 M sterile PBS (pH = 6.9) thrice and air-dried. Then, 200 µL of crystal violet solution (2%) was added to all wells. After 15 min, the excess of the crystal violet dye was removed and the wells were washed again with PBS. Then, the cell-bound crystal violet was dissolved in 33% acetic acid. The biofilm growth was quantified in terms of OD575 nm using an ELISA plate reader and biofilm hydrolysis was calculated by % inhibition formula.
# P. aeruginosa (DS) [6] = experiment: Antibiofilm assay (crystal violet); format: cell-based; conditions: 0.5 mg/mL
# Description: as §2
# S. aureus (DS) [7] = experiment: Antibiofilm assay (crystal violet); format: cell-based; conditions: 0.5 mg/mL
# Description: as §2
# S. aureus (DR) [8] = experiment: Antibiofilm assay (crystal violet); format: cell-based; conditions: 0.5 mg/mL
# Description: as §2
Compound,% Inhibition (α-glucosidase; 15.62 µg/mL) [%],% Inhibition (α-glucosidase; 31.2 µg/mL) [%],% Inhibition (α-glucosidase; 125 µg/mL) [%],% Inhibition (α-glucosidase; 250 µg/mL) [%],IC50 (α-glucosidase) [µg/mL],Minimum inhibitory concentration: sensitive/resistant (P. aeruginosa (DR) [1]; 125 µg/200 µL),Minimum inhibitory concentration: sensitive/resistant (P. aeruginosa (DR) [1]; 250 µg/200 µL),Minimum inhibitory concentration: sensitive/resistant (S. aureus (DS) [2]; 125 µg/200 µL),Minimum inhibitory concentration: sensitive/resistant (S. aureus (DS) [2]; 250 µg/200 µL),Minimum inhibitory concentration: sensitive/resistant (E. coli; 125 µg/200 µL),Minimum inhibitory concentration: sensitive/resistant (E. coli; 250 µg/200 µL),Minimum inhibitory concentration: sensitive/resistant (P. aeruginosa (DS) [3]; 125 µg/200 µL),Minimum inhibitory concentration: sensitive/resistant (P. aeruginosa (DS) [3]; 250 µg/200 µL),Minimum inhibitory concentration: sensitive/resistant (P. vulgaris; 125 µg/200 µL),Minimum inhibitory concentration: sensitive/resistant (P. vulgaris; 250 µg/200 µL),Minimum inhibitory concentration: sensitive/resistant (S. aureus (DR) [4]; 125 µg/200 µL),Minimum inhibitory concentration: sensitive/resistant (S. aureus (DR) [4]; 250 µg/200 µL),inhibition at 500 µg/mL (P. aeruginosa (DR) [5]) [%],biofilm inhibition (P. aeruginosa (DS) [6]),melting point [°C],further results
"Oc1ccc(N=Nc2cccnc2Cl)c(O)c1 [TR-7, 4-((2-chloropyridin-3-yl)diazenyl)benzene-1,3-diol]",34,52,77,87,29.7 ± 2.8,S,S,R,R,R,R,R,R,R,R,R,R,55,not found active,187 to 189,
"Oc1ccc(N=Nc2cccnc2Cl)c2ccccc12 [TR-8, 4-((2-chloropyridin-3-yl)diazenyl)naphthalen-1-ol]",29,45,75,98,36.7 ± 3.1,R,R,S,S,R,R,R,S,R,R,R,R,80,,170 to 175,biofilm inhibition (S. aureus (DS) [7]): greater than 70%; biofilm hydrolysis efficiency (S. aureus (DR) [8]): drastically decreased
(E)-1-(p-tolyldiazenyl)naphthalen-2-ol [TR-5],14,22,49,56,153.4 ± 11.5,S,S,R,R,S,S,R,S,R,R,S,S,,,,biofilm inhibition (anti-biofilm potency) (P. aeruginosa (DR) [5]): 80%
penicillin [reference compound],,,,,,,,,,,,,,,,,,,60%,,biofilm inhibition (S. aureus (DS) [7]): 65%
